Reference: paper PMC10649752, “Design and Synthesis of Novel Chalcone Derivatives: Anti-Breast Cancer Activity Evaluation and Docking Study” (International Journal of Molecular Sciences, 2023)
“Also recorded” adds a separate entry of the source.

Experiments:
Format in all cases: cell-based
MCF-7 cells [1] = assay: CCK-8 antiproliferative activity on MCF-7 cells
Protocol: (§1) DMEM high glucose medium and fetal calf serum were obtained from Gibco (New York, NY, USA), and cell counting Kit-8 solution was purchased from Meilunbio (Dalian, China). Paraformaldehyde and Crystal Violet were purchased from Biosharp (Hefei, China). The MCF-7 and L-02 cell lines were purchased from the Shanghai Institute of Biochemistry (Shanghai, China) All the target compounds and 5-fluorouracil (5-Fu) were dissolved with DMSO at a concentration of 20 mM. Cell culture medium was a mixture of DMEM medium, 10% fetal bovine serum, and 1% penicillin–streptomycin solution stored at […]. The cells were grown at 37 °C under 5% CO2.
(§2) Cells were seeded into 96 well plates with 4000 cells/well using DMEM solution and incubated in a humid atmosphere containing 5% CO2 at 37 °C for 24 h. Compounds with different concentrations (200 μM, 100 μM, 50 μM, 25 μM, 12.5 μM, 6.25 μM, 3.125 μM, 1.5625 μM) were added to the culture medium for 24 h. After that, CCK-8 reagent (10 μL) was added under dark conditions and incubated the plate in a CO2 incubator at 37 °C for 2 h. After incubation, the absorbance was measured using an enzyme-linked immunosorbent assay at a wavelength of 450 nm. Cell survival rate was calculated as a percentage of the control group.
(§3) By using Graph Pad Prism 8.0 software, the concentration that inhibits 50% of maximum cell proliferation was determined to be IC50 value.

[2] = tested on: human normal hepatocyte L-O2; assay: CCK-8 cytotoxicity against normal hepatocyte L-O2 cells; details: for IC50: human normal hepatocyte L-O2, CCK-8, 24 h
Protocol: We have selected compounds A7, A8, A9, and A14 with relatively low IC50 values, which are considered to have more potential and are more meaningful for further research. The toxic effects of compounds A7, A8, A9, and A14 on normal hepatocytes cells L-O2 were assessed in this work to examine the selective toxicity of the new compounds on cancer cells without harming normal cells. The selectivity index was calculated as a ratio of L-02 IC50/MCF-7 IC50 for these four compounds. […] Therefore, A8 and A14 were chosen as representative medications for future research after thorough evaluation.
as §1, §2, §3

MCF-7 cells [3] = assay: Cell colony formation assay; details: 7 days treatment, drug concentrations greater than 8 µmol/L, vs blank control
Protocol: MCF-7 cells were seeded into six-well plates at a density of 1000 cells/well and cultivated for 24 h. After that, the cells were continually incubated with different concentrations of compounds and positive control for 7 days. Each well was carefully rinsed three times with PBS buffer quickly at room temperature. Collected cells were fixed for 1 h at room temperature by adding 2 mL of 4% paraformaldehyde solution. The results were analyzed using the ImageJ software.

MCF-7 cells [4] = assay: Migration ability assay (wound healing / scratch); details: various concentrations, 24 h and 48 h, vs control group
Protocol: An obvious feature of breast cancer cells is their strong migration ability. In order to study the inhibitory effect of compounds on breast cancer cells migration, the scratch distances of compounds A8 and A14 on MCF-7 cells at different concentrations were measured by wound healing experiments. […] Moreover, under similar concentrations, the inhibitory migration effect of the target compound on MCF-7 is more excellent than that of the control drug 5-Fu.
MCF-7 cells were seeded into six-well plates at a density of 3000 cells/well and growing for 24 h. Scratches were made in confluent monolayers with 200 μL pipette tip. After that, each well was washed with PBS buffer 3 times to remove non-adherent cell debris. MCF-7 cells were continually incubated with different concentrations of compounds or positive control for 24 or 48 h. The area of cells migrated across the wound was photographed using phase contrast microscopy at 0 h, 24 h, and 48 h. The migration distance of cells into the wound area was measured by ImageJ2 software at room temperature.

Compound | IC50 (MCF-7 cells [1]; CCK-8, 24 h treatment) [µM] | IC50 [2] [µM] | Colony formation of MCF-7 cells (MCF-7 cells [3]) | Inhibition of MCF-7 cell migration (scratch distance) (MCF-7 cells [4]) | IC50 (MCF-7 cells [1]; Homo sapiens, MCF7, CCK-8, 24 h treatment) [µM] | Selectivity Index (SI) ([2]; ratio L-02 IC50/MCF-7 IC50)
COc1cc(C(=O)/C=C/c2ccc(C(=O)NCC3CC3)cc2)cc(OC)c1OC [Compound A9, (E)-N-(cyclopropylmethyl)-4-(3-oxo-3-(3,4,5-trimethoxyphenyl)prop-1-en-1-yl) benzamide] | 19.6 | 35.3 |  |  |  | 
COc1cc(C(=O)/C=C/c2ccc(C(=O)OCCCSc3ccncc3)cc2)cc(OC)c1OC [Compound A14, 3-(pyridin-4-ylthio) propyl (E)-4-(3-oxo-3-(3,4,5-trimethoxyphenyl)prop-1-en-1-yl) benzoate] |  | 41.2 | significantly reduced | inhibited MCF-7 cell migration; also recorded: effectively inhibited the migration of MCF-7 cells in a dose-dependent manner |  | 
COc1cc(C(=O)/C=C/c2ccc(C(=O)NCC3CCOC3)cc2)cc(OC)c1OC (stereo not drawn) [Compound A8, (E)-4-(3-oxo-3-(3,4,5-trimethoxyphenyl)prop-1-en-1-yl)-N-((tetrahydrofuran-3-yl)methyl) benzamide] | 16.7 | 47.2 |  | inhibited MCF-7 cell migration; also recorded: effectively inhibited the migration of MCF-7 cells in a dose-dependent manner |  | 
COc1cc(C(=O)/C=C/c2ccc(C(=O)NCc3cccs3)cc2)cc(OC)c1OC [Compound A7, (E)-4-(3-oxo-3-(3,4,5-trimethoxyphenyl)prop-1-en-1-yl)-N-(thiophen-2-ylmethyl) benzamide] | 19.1 |  |  |  |  | 
O=c1[nH]cc(F)c(=O)[nH]1 [Compound 5-Fu, 5-fluorouracil, reference compound] |  | 200 |  |  | 169 | 1.18
